Laboratory results: US6362336B1, “Chemical compounds” (Zeneca Limited, priority 1995, dated 2002)

Row | melting point | SMILES
1 | 249 to 251 °C | COc1cc2c(Nc3ccc(C)c(O)c3)ncnc2cc1OCc1ccncc1.Cl
2 | 252 to 254 °C | COc1cc2c(Nc3ccc(C)c(O)c3)ncnc2cc1OCc1c(C)noc1C.Cl
3 | 278 to 282 °C | COc1cc2c(Nc3ccc(C)c(O)c3)ncnc2cc1OCCCc1ccncc1.Cl
4 | 246 to 248 °C | COc1cc2c(Nc3cc(O)c(C)cc3F)ncnc2cc1OCCCc1ccncc1.Cl
5 | 257 to 260 °C | COc1cc2c(Nc3cc(O)c(C)cc3F)ncnc2cc1OCc1ccncc1.Cl
6 | 294 to 298 °C | COc1cc2c(Nc3cc(O)c(C)cc3F)ncnc2cc1OCc1ccccc1.Cl
7 | 220 to 225 °C | COc1cc2c(Nc3ccc(Cl)cc3F)ncnc2cc1OCc1csc(C)n1.Cl
8 | 195 to 220 °C | COc1cc2c(Nc3cc(O)c(C)cc3F)ncnc2cc1OCCn1ccnc1.Cl
9 | 265 to 270 °C | COc1cc2c(Nc3cc(O)c(C)cc3F)ncnc2cc1OCc1ccc(C#N)cc1.Cl
10 | 189 to 191 °C | COc1cc2c(Nc3ccc(Cl)cc3F)ncnc2cc1OCCc1ccncc1.Cl
11 | 216 to 221 °C | COc1cc2c(Nc3ccc(Cl)cc3F)ncnc2cc1OCc1cccnc1.Cl
12 | 236 to 238 °C | COc1cc2c(Nc3ccc(C)c(O)c3)ncnc2cc1OCc1ccccn1.Cl
13 | 224 to 229 °C | COc1cc2c(Nc3ccc(Cl)cc3F)ncnc2cc1OCCc1nccn1C.Cl
14 | 237 to 239 °C | COc1cc2c(Nc3ccc(Cl)cc3F)ncnc2cc1OCc1ccncn1.Cl
15 | 243 to 248 °C | COc1cc2c(Nc3ccc(Cl)cc3F)ncnc2cc1OCCCN(C)c1ccncc1.Cl
16 | 194 to 196 °C | COc1cc2c(Nc3ccc(Cl)cc3F)ncnc2cc1OCCN(C)c1ncccn1.Cl
17 | 245 to 250 °C | COc1cc2c(Nc3cc(O)c(C)cc3F)ncnc2cc1OCc1ccnc(Cl)c1.Cl
18 | 257 to 260 °C | COc1cc2c(Nc3ccc(C)c(O)c3)ncnc2cc1OCc1nccn1C.Cl
19 | 271 to 273 °C (dec.) | COc1cc2c(Nc3ccc(Cl)cc3F)ncnc2cc1OCc1cc(Cl)[nH]c(=O)c1.Cl
20 | 243 to 245 °C | COc1cc2c(Nc3ccc(C)c(O)c3)ncnc2cc1OCc1csc(C)n1.Cl
21 | 253 to 257 °C | Cl.Oc1cc(Nc2ncnc3cc(OCc4ccccc4)ccc23)c(F)cc1Cl
22 | 277 to 281 °C | COc1cc2c(Nc3cc(O)c(Cl)cc3F)ncnc2cc1OCc1ccsc1.Cl

Row | melting point | SMILES
23 | 246 to 248 °C | COc1cc2c(Nc3ccc(C)c(O)c3)ncnc2cc1OCc1ccsc1.Cl
24 | 194 to 202 °C | COc1cc2c(Nc3ccc(Cl)cc3F)ncnc2cc1OCc1csc(NC(C)=O)n1.Cl
25 | 202 to 204 °C | COc1cc2c(Nc3ccc(C)c(O)c3)ncnc2cc1OCc1csc(NC(C)=O)n1.Cl
26 | 290 °C | COc1cc2c(Nc3ccc(Cl)cc3F)ncnc2cc1OCc1ccnc(N(C)C)c1.Cl
27 | 258 to 259 °C | COc1cc2c(Nc3ccc(C)c(O)c3)ncnc2cc1OCc1cccnc1 [Example 3, 4-(3-hydroxy-4-methylanilino)-6-methoxy-7-(3-pyridylmethoxy)quinazoline]
28 | 290 to 291 °C | COc1cc2c(Nc3ccc(C)c(O)c3)ncnc2cc1OCc1ccncn1 [Example 5, 4-(3-hydroxy-4-methylanilino)-6-methoxy-7-(pyrimidin-4-ylmethoxy)quinazoline]
29 | 200 to 202 °C | COc1cc2c(Nc3ccc(Cl)cc3F)ncnc2cc1OCCOc1ccncc1 [Example 17, 4-(4-chloro-2-fluoroanilino)-6-methoxy-7-(2-(4-pyridyloxy)ethoxy)quinazoline]
30 | 209 to 211 °C | COc1cc2c(Nc3ccc(Cl)cc3F)ncnc2cc1OCCn1ccccc1=O [Example 18, 4-(4-chloro-2-fluoroanilino)-6-methoxy-7-[2-(2-oxo-1,2-dihydro-1-pyridyl)ethoxy]quinazoline]
31 | > 250 °C | COc1cc2c(Nc3ccc(Cl)cc3F)ncnc2cc1OCCCn1ccc(=O)cc1 [Example 19, 4-(4-chloro-2-fluoroanilino)-6-methoxy-7-[3-(4-oxo-1,4-dihydro-1-pyridyl)propoxy]quinazoline]
32 | 215 to 218 °C | COc1cc2c(Nc3ccc(Cl)cc3F)ncnc2cc1OCc1ccccn1 [Example 39, 4-(4-chloro-2-fluoroanilino)-6-methoxy-7-((2-pyridyl)methoxy)quinazoline]
33 | 197 to 198 °C | COc1cc2c(Oc3ccc(Cl)cc3F)ncnc2cc1OCc1ccncc1 [Example 44, 4-(4-chloro-2-fluorophenoxy)-6-methoxy-7-((4-pyridyl)methoxy)quinazoline]
34 | 208 to 212 °C | COc1cc2c(Nc3ccc(Cl)cc3F)ncnc2cc1OCCN(C)c1cc(C)nc(C)c1 [Example 46, 4-(4-chloro-2-fluoroanilino)-7-(2-(N-(2,6-dimethyl-4-pyridyl)-N-methylamino)ethoxy)-6-methoxyquinazoline]
35 | 210 to 212 °C | COc1cc2c(Nc3ccc(Cl)cc3F)ncnc2cc1OCc1ccnc(Br)c1 [Example 59, 7-((2-bromo-4-pyridyl)methoxy)-4-(4-chloro-2-fluoroanilino)-6-methoxyquinazoline]
36 | 209 to 213 °C | COc1cc2c(Nc3ccc(Cl)cc3F)ncnc2cc1OCc1ccnc(C#N)c1 [Example 60, 4-(4-chloro-2-fluoroanilino)-7-((2-cyano-4-pyridyl)methoxy)-6-methoxyquinazoline]
37 | 202 to 204 °C | COc1cc(COc2cc3ncnc(Nc4ccc(Cl)cc4F)c3cc2OC)ccn1 [Example 62, 4-(4-chloro-2-fluoroanilino)-7-((2-methoxy-4-pyridyl)methoxy)-6-methoxyquinazoline]
38 | 221 to 224 °C | COc1cc2c(Nc3ccc(Cl)cc3F)ncnc2cc1OCc1ccnc(C)c1 [Example 63, 4-(4-chloro-2-fluoroanilino)-6-methoxy-7-((2-methyl-4-pyridyl)methoxy)quinazoline]
39 | 216 to 218 °C | COc1cc2c(Nc3ccc(Cl)cc3F)ncnc2cc1OCCCn1ccccc1=O [Example 65, 4-(4-chloro-2-fluoroanilino)-6-methoxy-7-(3-(2-oxo-1,2-dihydro-1-pyridyl)propoxy)quinazoline]
40 | 199 to 201 °C | COc1cc2c(Nc3ccc(Cl)cc3F)ncnc2cc1OCCCSc1nccn1C [Example 66, 4-(4-chloro-2-fluoroanilino)-6-methoxy-7-(3-(1-methylimidazol-2-ylthio)propoxy)quinazoline]
41 | 138 to 140 °C | COc1cc2c(Nc3ccc(Cl)cc3F)ncnc2cc1OCCCOc1ccncc1 [Example 67, 4-(4-chloro-2-fluoroanilino)-6-methoxy-7-(3-(4-pyridyloxy)propoxy)quinazoline]
42 | 182 to 186 °C | COc1cc2c(Nc3ccc(Cl)cc3F)ncnc2cc1OCCSc1ccncc1 [Example 68, 4-(4-chloro-2-fluoroanilino)-6-methoxy-7-(2-(4-pyridylthio)ethoxy)quinazoline]
43 | 188 to 190 °C | COc1cc2c(Nc3ccc(Cl)cc3F)ncnc2cc1OCCOc1cccnc1 [Example 69, 4-(4-chloro-2-fluoroanilino)-6-methoxy-7-(2-(3-pyridyloxy)ethoxy)quinazoline]
44 | 212 to 214 °C | CCOC(=O)c1cc(COc2cc3ncnc(Nc4ccc(Cl)cc4F)c3cc2OC)ccn1 [Example 93, 4-(4-chloro-2-fluoroanilino)-7-(2-ethoxycarbonylpyrid-4-yl)methoxy-6-methoxyquinazoline]

Row | SMILES | melting point
45 | COc1cc2c(Nc3ccc(C)c(OC(C)=O)c3)ncnc2cc1OCc1cccnc1 [Example 2, 4-(3-acetoxy-4-methylanilino)-6-methoxy-7-(3-pyridylmethoxy)quinazoline] | 113 to 115 °C
